A short description of assay [1]: Static ozone deterioration test, Example 1 natural rubber compound (pale crape No. 1). The conditions noted are these: Table 2, static, 20 % elongation, 2 parts added, ozone 35 ± 5 pphm, 50 ± 10°C. As to the method:
(§1) Two parts of each of the present compounds in Table 1 (sample numbers A to H) and, as a counterpart, Antiozonant AFD (a registered trademark of Bayer Co. Ltd.) represented by sample number I were individually mixed thoroughly with the following rubber compound,
(§2) and each resulting mixture was well milled on a 2-roll mill of 10 inches in diameter and then vulcanized thereon at 140°C. for 20 minutes. A blank test was also carried out at the same time for comparison, using the rubber compound alone above mentioned.
(§3) The static and dynamic ozone deterioration tests were made on the test pieces on the Ozone Weather-O-Meter produced by Toyo Rika Co. Ltd. In the static test, the Dumbbel No. 2 test pieces were kept at a 20 % elongation in the stream of ozone during the test, and during the latter test, the test pieces were given repeated elongation of from 0 up to 20 % once a second in the stream of ozone.
(§4) The tests were carried out under the condition that the ozone concentration be 35 ± 5 pphm and the test temperature be 50 ± 10°C., and the time required for the generation of visually observable cracks on the surface of the vulcanized rubber was taken as a crack-generating time which was used as the measure of ozone-resistance.

The nature of assay [2]: Dynamic ozone deterioration test, Example 2 SBR compound. Conditions: Table 5, dynamic, repeated elongation 0 up to 20 %, 2 parts added, ozone 35 ± 5 pphm, 50 ± 10°C. As to the method: as §3, §4
(§5) Two parts of each of the present compounds in Table 1 (sample numbers A to H) and, as a counterpart, Antiozonant AFD represented by sample number I were individually mixed thoroughly with the following rubber compound,
(§6) and each resulting mixture was well milled on a 2-roll mill of 10 inches in diameter and then vulcanized thereon at 150°C. for 30 minutes. A blank test was also carried out at the same time for comparison, using the rubber compound alone above mentioned.

A short description of assay [3]: Dynamic ozone deterioration test, Example 3 chloroprene rubber compound. The conditions noted are these: Table 7, dynamic, repeated elongation 0 up to 20 %, 1.5 parts added, ozone 90 ± 5 pphm, 50 ± 10°C. As to the method:
as §3
(§7) be 50 ± 10°C., and the time required for the generation of visually observable cracks on the surface of the vulcanized rubber was taken as a crack-generating time which was used as the measure of ozone-resistance. […]
(§8) A blank test was also carried out at the same time for comparison, using the rubber compound alone above mentioned.

Assay [4] is described as follows: Static ozone deterioration test, Example 2 SBR compound. The conditions noted are these: Table 4, static, 20 % elongation, 2 parts added, ozone 35 ± 5 pphm, 50 ± 10°C. As to the method:
as §3, §4, §5, §6

Assay [5] can be described thus: Dynamic ozone deterioration test, Example 1 natural rubber compound (pale crape No. 1). Conditions: Table 3, dynamic, repeated elongation 0 up to 20 % once a second, 2 parts added, ozone 35 ± 5 pphm, 50 ± 10°C. As to the method:
as §1, §2, §3, §4

Assay [6] is described as follows: Static ozone deterioration test, Example 3 chloroprene rubber compound. Conditions: Table 6, static, 20 % elongation, 1.5 parts added, ozone 90 ± 5 pphm, 50 ± 10°C. As to the method: as §3, §7, §8

With `CCC(CCCC#N)CSCC(CC)CCCC#N` (stereo not drawn) [E], the Crack-generating time in assay [1] amounted to 16 h; in assay [2], 15 h; in assay [3] it was 190 h; in assay [4], 11 h; in assay [5] it was 16 h; in assay [6], 180 h.

Regarding `N#CCCSCCC#N` [Sample A], the Crack-generating time is 20 h in assay [1]; 21 h in assay [2]; 220 h in assay [3]; 16 h in assay [4]; 24 h in assay [5]; 200 h in assay [6].

Regarding `CCCCCCCCCCCCCCCCCCSCCC#N` [F], the Crack-generating time was found to be 14 h in assay [1]; 13 h in assay [2]; 180 h in assay [3]; 10 h in assay [4]; 15 h in assay [5]; 170 h in assay [6].

As to `CC(C)SCCC#N` [B], the Crack-generating time came to 15 h in assay [1]; 14 h in assay [2]; 185 h in assay [3]; 11 h in assay [4]; 16 h in assay [5]; 175 h in assay [6].

`N#CCCCSCCCC#N` [D]: the Crack-generating time came out at 19 h in assay [1]; 19 h in assay [2]; 215 h in assay [3]; 15 h in assay [4]; 22 h in assay [5]; 195 h in assay [6].

Take `CC(C#N)CSCC(C)C#N` (stereo not drawn) [C]: the Crack-generating time came out at 18 h in assay [1]; 18 h in assay [2]; 210 h in assay [3]; 13 h in assay [4]; 20 h in assay [5]; 190 h in assay [6].
